Read-outs that look alike come from different tables or passages of the source. *1 amine or outer side, *2 acyl side, *3 side chain or, on linkers, in order; H or OH if unused. Where a SMILES comes first, the peptide text is derived from it. Bridges are numbered along the chain shown (N, C = ends). [ ]: non-standard residue; d: D form. The star is where a group is joined. GdDOTA = Gd(III) DOTA conjugate, O=C([O-])CN1CCN(CC(=O)[O-])CCN(CC(=O)*)CCN(CC(=O)[O-])CC1.[Gd+3]; Acetyl(4-DOTA-piperazinyl) = O=C(O)CN1CCN(CC(=O)O)CCN(CC(=O)N2CCN(CC(=O)*)CC2)CCN(CC(=O)O)CC1; X6 = O=C(O)CN1CCN(CC(=O)O)CCN(CC(=O)NCCCOCCOCCOCCCN*)CCN(CC(=O)O)CC1; DOTA = O=C(O)CN1CCN(CC(=O)O)CCN(CC(=O)*)CCN(CC(=O)O)CC1; Pro(trans-4-F) = O=C(O)[C@@H]1C[C@@H](F)CN1; Pro(cis-4-F) = O=C(O)[C@@H]1C[C@H](F)CN1; Phe(4-NH2) = Nc1ccc(C[C@H](N)C(=O)O)cc1; 2Nal = N[C@@H](Cc1ccc2ccccc2c1)C(=O)O; Dopa = N[C@@H](Cc1ccc(O)c(O)c1)C(=O)O; Hyp = O=C(O)[C@@H]1C[C@@H](O)CN1; Pentanoyl(4-Me) = CC(C)CCC(=O)*; Cha = N[C@@H](CC1CCCCC1)C(=O)O; Cit = NC(=O)NCCC[C@H](N)C(=O)O; Butoxycarbonyl = CCCCOC(=O)*; Phg = N[C@H](C(=O)O)c1ccccc1; Suc = O=C(CCC(=O)[*:2])[*:1]; Tle = CC(C)(C)[C@H](N)C(=O)O; Nle = CCCC[C@H](N)C(=O)O; Nva = CCC[C@H](N)C(=O)O; Pentanoyl = CCCCC(=O)*; AEEA = NCCOCCOCC(=O)O
Columns and labels:
[1] = molecular target: T1, uPAR-expressing HEC-265 human endometrial adenocarcinoma cells (Homo sapiens, UniProt Q03405); assay: Competitive FACS binding assay; conditions: pIC50 category of FACS binding
T1 construct: Cell surface uPAR-expressing HEC-265 human endometrial adenocarcinoma cells; host or cells: HEC-265
Method in brief: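 Competitive displacement of a 10 nM biotinylated peptide from HEC-265 cells (1 h, 4 °C, PBS/1% BSA), detected via APC-streptavidin by flow cytometry. pIC50 from four-parameter logistic fit of median fluorescence versus concentration.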

human uPAR (uPAR-Fc) = molecular target: T2, human uPAR (uPAR-Fc) (Homo sapiens, UniProt Q03405); assay: Surface plasmon resonance (SPR) assay, single cycle kinetics; assay type: binding; conditions: pKD category for uPAR SPR activity assay, uPAR-Fc on Protein A-Chip, 25°C; for Kd: read-out: pKD CAT (converted)
T2 construct: comprising amino acids Leu23-Arg303 according to UniProt entry Q03405.1; purchased R&D Systems 10378-UK-100
Method in brief: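 uPAR-Fc (Leu23-Arg303 extracellular domains, human IgG1 Fc) captured on Protein A chip to ~2000 RU; single-cycle kinetics at 25°C in HEPES running buffer pH 7.4 with 0.1% DMSO. KD from double-referenced sensorgrams fitted to 1:1 Langmuir model, reported as pKD.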

T2 sequence (Q03405 23-303): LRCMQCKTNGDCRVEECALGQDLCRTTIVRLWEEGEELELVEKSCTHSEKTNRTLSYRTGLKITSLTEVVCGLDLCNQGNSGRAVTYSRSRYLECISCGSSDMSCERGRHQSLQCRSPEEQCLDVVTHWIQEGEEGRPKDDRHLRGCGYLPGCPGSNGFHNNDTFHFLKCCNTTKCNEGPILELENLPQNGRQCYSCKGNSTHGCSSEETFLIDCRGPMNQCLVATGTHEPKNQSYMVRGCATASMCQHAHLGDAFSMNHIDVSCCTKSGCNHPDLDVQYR
T1 sequence (Q03405 23-335): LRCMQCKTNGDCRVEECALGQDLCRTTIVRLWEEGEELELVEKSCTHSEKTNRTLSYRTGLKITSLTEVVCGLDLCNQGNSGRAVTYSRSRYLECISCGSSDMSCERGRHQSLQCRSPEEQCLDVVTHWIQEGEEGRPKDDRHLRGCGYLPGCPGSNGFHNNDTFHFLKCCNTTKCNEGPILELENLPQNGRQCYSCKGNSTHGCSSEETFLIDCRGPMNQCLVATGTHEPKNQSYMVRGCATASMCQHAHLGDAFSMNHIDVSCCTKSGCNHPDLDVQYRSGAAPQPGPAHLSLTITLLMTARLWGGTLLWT

Row | Compound | IC50 [1] [nM] | Kd (human uPAR (uPAR-Fc)) [nM] | Kd (human uPAR (uPAR-Fc); single cycle kinetics) [nM] | pIC50 CAT [1] | pKD CAT (human uPAR (uPAR-Fc); single cycle kinetics)
1 | CC(C)CCC(=O)N[C@H]1CSSC[C@@H](C(N)=O)NC(=O)[C@H](CC(C)C)NC(=O)[C@H](CC2CCCCC2)NC(=O)[C@@H](C)NC(=O)[C@@H]2CCCN2C(=O)[C@H](Cc2ccccc2)NC(=O)[C@H](Cc2ccc(O)cc2)NC(=O)[C@H](CCC(N)=O)NC(=O)[C@H](CCCNC(N)=O)NC1=O [UPAR-326, iHex-[Cys-Cit-Gln-Tyr-Phe-Pro-ala-Cha-Leu-Cys]-NH2] ({Pentanoyl(4-Me)}-C[Cit]QYFP[dA][Cha]LC-NH2; disulfide 1-10) | ≤ 10 | < 1.58 |  |  | 
2 | CCCC[C@H](NC(=O)CCC(=O)NCCCOCCOCCOCCCNC(=O)CN1CCN(CC(=O)O)CCN(CC(=O)O)CCN(CC(=O)O)CC1)C(=O)N[C@@H](CC(=O)O)C(=O)N[C@@H](CC(C)C)C(=O)N[C@H]1CSSC[C@@H](C(N)=O)NC(=O)[C@H](CC(C)C)NC(=O)[C@H]([C@@H](C)CC)NC(=O)[C@H](C)NC(=O)[C@@H]2CCCN2C(=O)[C@H](Cc2ccccc2)NC(=O)[C@H](Cc2ccc(O)cc2)NC(=O)[C@H](CCSC)NC(=O)[C@H](CCCNC(=N)N)NC1=O [UPAR-347, DOTA-Ttds-Nle-Asp-Leu-[Cys-Arg-Met-Tyr-Phe-Pro-Ala-Ile-Leu-Cys]-NH2] ({X6-Suc}-[Nle]DLCRMYFPAILC-NH2; disulfide 4-13) | ≤ 10 |  | < 1.58 |  | 
3 | CC(C)CCC(=O)N[C@H]1CSSC[C@@H](C(N)=O)NC(=O)[C@H](CC(C)C)NC(=O)[C@H](C(C)(C)C)NC(=O)[C@@H](C)NC(=O)[C@@H]2CCCN2C(=O)[C@H](Cc2ccccc2)NC(=O)[C@H](Cc2ccc(O)cc2)NC(=O)[C@H](CCC(N)=O)NC(=O)[C@H](CCCNC(N)=O)NC1=O [UPAR-201, iHex-[Cys-Cit-Gln-Tyr-Phe-Pro-ala-Tle-Leu-Cys]-NH2] ({Pentanoyl(4-Me)}-C[Cit]QYFP[dA][Tle]LC-NH2; disulfide 1-10) | 39.8 to 100 | 10 to 100 |  |  | 
4 | CC[C@H](C)[C@@H]1NC(=O)[C@@H](C)NC(=O)[C@@H]2CCCN2C(=O)[C@H](Cc2ccccc2)NC(=O)[C@H](Cc2ccc(O)cc2)NC(=O)[C@H](CCC(N)=O)NC(=O)[C@H](CCCNC(=N)N)NC(=O)[C@@H](NC(=O)CCC(C)C)CSSC[C@@H](C(=O)NCCOCCOCC(=O)N[C@@H](CCCCNC(=O)CN2CCN(CC(=O)O)CCN(CC(=O)O)CCN(CC(=O)O)CC2)C(N)=O)NC(=O)[C@H](CC(C)C)NC1=O [UPAR-449, iHex-[Cys-Arg-Gln-Tyr-Phe-Pro-ala-Ile-Leu-Cys]-O2Oc-Lys(DOTA)-NH2] ({Pentanoyl(4-Me)}-CRQYFP[dA]ILC[AEEA]K(DOTA)-NH2; disulfide 1-10) | ≥ 126 |  | 1.58 to 10 |  | 
5 | CCCCC(=O)N[C@H]1CSSC[C@@H](C(N)=O)NC(=O)[C@H](CCC)NC(=O)[C@H]([C@@H](C)CC)NC(=O)[C@@H]2C[C@@H](O)CN2C(=O)[C@@H]2CCCN2C(=O)[C@H](Cc2ccccc2)NC(=O)[C@H](c2ccccc2)NC(=O)[C@H](CCC(N)=O)NC(=O)[C@H](CCCNC(=N)N)NC1=O [UPAR-196, Pent-[Cys-Arg-Gln-Phg-Phe-Pro-Hyp-Ile-Nva-Cys]-NH2] (Pentanoyl-CRQ[Phg]FP[Hyp]I[Nva]C-NH2; disulfide 1-10) | ≥ 126 | > 100 |  |  | 
6 | CCCCC(=O)N[C@H]1CSSC[C@@H](C(N)=O)NC(=O)[C@H](CCC)NC(=O)[C@H]([C@@H](C)CC)NC(=O)[C@@H]2C[C@@H](O)CN2C(=O)[C@H](Cc2ccccc2)NC(=O)[C@H](Cc2ccccc2)NC(=O)[C@H](Cc2ccc(O)cc2)NC(=O)[C@H](CCC(N)=O)NC(=O)[C@H](CCCNC(=N)N)NC1=O [UPAR-400, Pent-[Cys-Arg-Gln-Tyr-Phe-Phe-Hyp-Ile-Nva-Cys]-NH2] (Pentanoyl-CRQYFF[Hyp]I[Nva]C-NH2; disulfide 1-10) | ≤ 10 |  | 1.58 to 10 |  | 
7 | CC[C@H](C)[C@@H]1NC(=O)[C@@H](C)NC(=O)[C@@H]2CCCN2C(=O)[C@H](Cc2ccccc2)NC(=O)[C@H](Cc2ccc(O)c(O)c2)NC(=O)[C@H](CCC(N)=O)NC(=O)[C@H](CCCNC(N)=O)NC(=O)[C@@H](NC(=O)CCC(C)C)CSSC[C@@H](C(N)=O)NC(=O)[C@H](CC(C)C)NC1=O [UPAR-144, iHex-[Cys-Cit-Gln-Dopa-Phe-Pro-ala-Ile-Leu-Cys]-NH2] ({Pentanoyl(4-Me)}-C[Cit]Q[Dopa]FP[dA]ILC-NH2; disulfide 1-10) | ≤ 10 | < 1.58 |  |  | 
8 | CCCCOC(=O)N[C@H]1CSSC[C@@H](C(N)=O)NC(=O)[C@H](CCC)NC(=O)[C@H]([C@@H](C)CC)NC(=O)[C@@H]2C[C@@H](O)CN2C(=O)[C@@H]2C[C@H](F)CN2C(=O)[C@H](Cc2ccccc2)NC(=O)[C@H](Cc2ccc(O)c(O)c2)NC(=O)[C@H](CCCCNC(=O)CN2CCN(C(=O)CN3CCN(CC(=O)O)CCN(CC(=O)O)CCN(CC(=O)O)CC3)CC2)NC(=O)[C@H]([C@@H](C)O)NC1=O [UPAR-199, Butoc-[Cys-Thr-Lys(DOTA-PPAc)-Dopa-Phe-4Cfp-Hyp-Ile-Nva-Cys]-NH2] (Butoxycarbonyl-CTK(Acetyl(4-DOTA-piperazinyl))[Dopa]F[Pro(cis-4-F)][Hyp]I[Nva]C-NH2; disulfide 1-10) | ≤ 10 | < 1.58 |  |  | 
9 | CC[C@H](C)[C@@H]1NC(=O)[C@@H](C)NC(=O)[C@@H]2CCCN2C(=O)[C@H](Cc2ccc3ccccc3c2)NC(=O)[C@H](Cc2ccc(O)cc2)NC(=O)[C@H](CCC(N)=O)NC(=O)[C@H](CCCNC(N)=O)NC(=O)[C@@H](NC(=O)CCC(C)C)CSSC[C@@H](C(N)=O)NC(=O)[C@H](CC(C)C)NC1=O [UPAR-147, iHex-[Cys-Cit-Gln-Tyr-2Ni-Pro-ala-Ile-Leu-Cys]-NH2] ({Pentanoyl(4-Me)}-C[Cit]QY[2Nal]P[dA]ILC-NH2; disulfide 1-10) | 12.6 to 31.6 | 10 to 100 |  |  | 
10 | CC[C@H](C)[C@@H]1NC(=O)[C@@H](C)NC(=O)[C@@H]2CCCN2C(=O)[C@H](Cc2ccccc2)NC(=O)[C@H](Cc2ccc(O)cc2)NC(=O)[C@H](CCC(N)=O)NC(=O)[C@H](CCCNC(N)=O)NC(=O)[C@@H](NC(=O)CCC(C)C)CSSC[C@@H](C(N)=O)NC(=O)[C@H](CC2CCCCC2)NC1=O [UPAR-474, iHex-[Cys-Cit-Gln-Tyr-Phe-Pro-ala-Ile-Cha-Cys]-NH2] ({Pentanoyl(4-Me)}-C[Cit]QYFP[dA]I[Cha]C-NH2; disulfide 1-10) | ≥ 126 |  | > 100 |  | 
11 | Pent-[Cys-Cit-Lys(GdDOTA)-Tyr-Phe-Pro-4Tfp-Ile-Nva-Cys]-NH2 (Pentanoyl-C[Cit]K(GdDOTA)YFP[Pro(trans-4-F)]I[Nva]C-NH2; disulfide 1-10; not fully specified; also: Gd(III) complexed by DOTA) [UPAR-435] |  |  |  | A (pIC50 values ≥8.0) | A (pKD values ≥ 8.8)
12 | CCCCC(=O)N[C@H]1CSSC[C@@H](C(N)=O)NC(=O)[C@H](CCC)NC(=O)[C@H]([C@@H](C)CC)NC(=O)[C@@H](CC(=O)O)NC(=O)[C@@H]2CCCN2C(=O)[C@H](Cc2ccccc2)NC(=O)[C@H](Cc2ccc(O)cc2)NC(=O)[C@H](CCC(N)=O)NC(=O)[C@H](CCCNC(=N)N)NC1=O [UPAR-161, Pent-[Cys-Arg-Gln-Tyr-Phe-Pro-asp-Ile-Nva-Cys]-NH2] (Pentanoyl-CRQYFP[dD]I[Nva]C-NH2; disulfide 1-10) | ≤ 10 | 10 to 100 |  |  | 
13 | CC[C@H](C)[C@@H]1NC(=O)[C@@H](C)NC(=O)[C@@H]2CCCN2C(=O)[C@H](Cc2ccccc2)NC(=O)[C@H](Cc2ccc(O)cc2)NC(=O)[C@H](CCCCNC(=O)CN2CCN(CC(=O)O)CCN(CC(=O)O)CCN(CC(=O)O)CC2)NC(=O)[C@@H](CC(=O)O)NC(=O)[C@@H](NC(=O)[C@H](CC(C)C)NC(=O)[C@H](CC(=O)O)NC(C)=O)CSSC[C@@H](C(N)=O)NC(=O)[C@H](CC(C)C)NC1=O [UPAR-392, Ac-Asp-Leu-[Cys-asp-Lys(DOTA)-Tyr-Phe-Pro-ala-Ile-Leu-Cys]-NH2] (Ac-DLC[dD]K(DOTA)YFP[dA]ILC-NH2; disulfide 3-12) | ≥ 126 |  | > 100 |  | 
14 | CCC[C@@H]1NC(=O)[C@H]([C@@H](C)CC)NC(=O)[C@@H](C)NC(=O)[C@@H]2CCCN2C(=O)[C@H](Cc2ccccc2)NC(=O)[C@H](Cc2ccc(O)cc2)NC(=O)[C@H](CCC(N)=O)NC(=O)[C@H](CCCNC(N)=O)NC(=O)[C@@H](NC(=O)CCC(C)C)CSSC[C@@H](C(N)=O)NC1=O [UPAR-429, iHex-[Cys-Cit-Gln-Tyr-Phe-Pro-ala-Ile-Nva-Cys]-NH2] ({Pentanoyl(4-Me)}-C[Cit]QYFP[dA]I[Nva]C-NH2; disulfide 1-10) | ≤ 10 |  | < 1.58 |  | 
15 | CCCCC(=O)N[C@H]1CSSC[C@@H](C(N)=O)NC(=O)[C@H](CCC)NC(=O)[C@H]([C@@H](C)CC)NC(=O)[C@@H]2C[C@@H](O)CN2C(=O)[C@@H]2CCCN2C(=O)[C@H](Cc2ccccc2)NC(=O)[C@H](Cc2ccc(N)cc2)NC(=O)[C@H](CCCCNC(=O)CN2CCN(CC(=O)O)CCN(CC(=O)O)CCN(CC(=O)O)CC2)NC(=O)[C@H](CCCNC(N)=O)NC1=O [UPAR-320, Pent-[Cys-Cit-Lys(DOTA)-Aph-Phe-Pro-Hyp-Ile-Nva-Cys]-NH2] (Pentanoyl-C[Cit]K(DOTA)[Phe(4-NH2)]FP[Hyp]I[Nva]C-NH2; disulfide 1-10) | ≤ 10 | < 1.58 |  |  | 
16 | CC[C@H](C)[C@@H]1NC(=O)[C@@H]2C[C@@H](O)CN2C(=O)[C@@H]2CCCN2C(=O)[C@H](Cc2ccccc2)NC(=O)[C@H](Cc2ccc(O)cc2)NC(=O)[C@H](CC(=O)O)NC(=O)[C@H](CCCNC(=N)N)NC(=O)[C@@H](NC(=O)CCC(C)C)CSSC[C@@H](C(N)=O)NC(=O)[C@H](CC(C)C)NC1=O [UPAR-458, iHex-[Cys-Arg-Asp-Tyr-Phe-Pro-Hyp-Ile-Leu-Cys]-NHz] ({Pentanoyl(4-Me)}-CRDYFP[Hyp]ILC-NH2; disulfide 1-10) | ≤ 10 |  | < 1.58 |  | 
